Tests used:
green foxtail [1] = experiment: Test Example 5: herbicidal effect by foliage application, plastic box (Table 20, symbol G); format: in vivo, green foxtail (Setaria viridis); details: foliage application
How it was run: (§1)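 Post-emergence foliar test in sterilized diluvial soil. Compound applied as water-diluted emulsion at a predetermined rate to 14-day-old plants; evaluation at three weeks.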

wild oat = experiment: Test Example 5: herbicidal effect by foliage application, plastic box (Table 20, symbol I); format: in vivo, wild oat (Avena fatua); details: foliage application
How it was run: as §1

rice flat sedge = experiment: Test Example 3: herbicidal effect by foliage application, Wagner pot (Table 18, symbol E); format: in vivo, rice flat sedge (Cyperus iria)
How it was run: (§2)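 Plants were sown in alluvial soil held under 0.1–0.5 cm standing water and grown 14 days in a greenhouse at 25–30 °C. An emulsifiable formulation, water-diluted to the set dose, was then sprayed onto the foliage, and effects were scored three weeks later using previously defined criteria.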

velvetleaf [2] = experiment: Test Example 5: herbicidal effect by foliage application, plastic box (Table 20, symbol M); format: in vivo, velvetleaf (Abutilon theophrasti); details: foliage application
How it was run: as §1

southern crabgrass [3] = experiment: Test Example 5: herbicidal effect by foliage application, plastic box (Table 20, symbol F); format: in vivo, southern crabgrass (Digitaria ciliaris); details: foliage application
How it was run: as §1

persian speedwell = experiment: Test Example 5: herbicidal effect by foliage application, plastic box (Table 20, symbol R); format: in vivo, Persian speedwell (Veronica persica); details: foliage application
How it was run: as §1

late watergrass = experiment: Test Example 1: herbicidal activity, application before weed generation under submerged conditions (Table 16, symbol A); format: in vivo, late watergrass (Echinochloa oryzicola); details: for Herbicidal effect, A: late watergrass: amount of applied herbicide 320 g/ha
Excerpt: [Test Example 1] Herbicidal Activity Test by Application before Weed Generation under Submerged Conditions After alluvial soil was placed into 1/10000 are of Wagner pot, water was poured and mixed to form a submerged condition having a water depth of 4 cm. Seeds of late watergrass, Japanese bulrush, and oval-leafed pondweed were sowed in a mixed manner in the aforementioned pot, and then 2.5 leaf stage rice plant seedlings were transplanted thereto. On the day of sowing seeds, the emulsion agent of the compound of the present invention prepared according to Formulation Example 2 was diluted with water so as to achieve a predetermined herbicide amount, and the diluted emulsion agent was applied to the surface of the water. The pot was placed in a greenhouse at 25° C. to 30° C. for growth of the plants. Three weeks after the herbicide application, the effect of the herbicide on each plant was evaluated according to the following criteria. Evaluation Criteria 5: Herbicidal rate of 90% or more (almost completely withered) 4: Herbicidal rate of 70% or more and less than 90% 3: Herbicidal rate of 40% or more and less than 70% 2: Herbicidal rate of 20% or more and less than 40% 1: Herbicidal rate of 5% or more and less than 20% 0: Herbicidal rate of 5% or less (almost no effect)

Japanese bulrush = experiment: Test Example 1: herbicidal activity, application before weed generation under submerged conditions (Table 16, symbol B); format: in vivo, Japanese bulrush (Schoenoplectus juncoides); details: for Herbicidal effect, B: Japanese bulrush: amount of applied herbicide 320 g/ha
How it was run: (§3)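 Submerged Wagner pots (alluvial soil, 4 cm water) sown with weed seeds and planted with 2.5-leaf rice seedlings; emulsifiable concentrate diluted in water applied to water surface on sowing day. Held in greenhouse at 25-30 °C; injury scored 0-5 by herbicidal rate after three weeks.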

blackgrass = experiment: Test Example 5: herbicidal effect by foliage application, plastic box (Table 20, symbol J); format: in vivo, blackgrass (Alopecurus myosuroides); details: foliage application
How it was run: as §1

lambsquarters [4] = experiment: Test Example 5: herbicidal effect by foliage application, plastic box (Table 20, symbol O); format: in vivo, lambsquarters (Chenopodium album); details: foliage application
How it was run: as §1

Italian ryegrass = experiment: Test Example 5: herbicidal effect by foliage application, plastic box (Table 20, symbol K); format: in vivo, Italian ryegrass (Lolium multiflorum); details: foliage application
How it was run: as §1

oval-leafed pondweed = experiment: Test Example 1: herbicidal activity, application before weed generation under submerged conditions (Table 16, symbol C); format: in vivo, oval-leafed pondweed (Monochoria vaginalis); details: for Herbicidal effect, C: oval-leafed pondweed: amount of applied herbicide 320 g/ha
How it was run: as §3

windgrass = experiment: Test Example 5: herbicidal effect by foliage application, plastic box (Table 20, symbol L); format: in vivo, windgrass (Apera spica-venti); details: foliage application
How it was run: as §1

barnyard grass [5] = experiment: Test Example 3: herbicidal effect by foliage application, Wagner pot (Table 18, symbol H); format: in vivo, barnyard grass (Echinochloa crus-galli)
How it was run: as §2

Chinese sprangletop = experiment: Test Example 3: herbicidal effect by foliage application, Wagner pot (Table 18, symbol D); format: in vivo, chinese sprangletop (Leptochloa chinensis)
How it was run: as §2

barnyard grass [6] = experiment: Test Example 5: herbicidal effect by foliage application, plastic box (Table 20, symbol H); format: in vivo, barnyard grass (Echinochloa crus-galli); details: foliage application
How it was run: as §1

velvetleaf [7] = experiment: Test Example 4: herbicidal effect by soil treatment (Table 19, symbol M); format: in vivo, velvetleaf (Abutilon theophrasti); details: amount of applied herbicide 320 g/ha
How it was run: (§4)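 Scoring uses the grading scale of an earlier test, three weeks post-application. Treatment consists of spraying a diluted emulsion formulation across the surface of sterilized diluvial soil in which seeds are buried near 1.5 cm deep; boxes are kept in a greenhouse between 25° C. and 30° C.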

lambsquarters [8] = experiment: Test Example 4: herbicidal effect by soil treatment (Table 19, symbol O); format: in vivo, lambsquarters (Chenopodium album); details: amount of applied herbicide 320 g/ha
How it was run: as §4

barnyard grass [9] = experiment: Test Example 4: herbicidal effect by soil treatment (Table 19, symbol H); format: in vivo, barnyard grass (Echinochloa crus-galli); details: amount of applied herbicide 320 g/ha
How it was run: as §4

southern crabgrass [10] = experiment: Test Example 4: herbicidal effect by soil treatment (Table 19, symbol F); format: in vivo, southern crabgrass (Digitaria ciliaris); details: amount of applied herbicide 320 g/ha
How it was run: as §4

redroot pigweed [11] = experiment: Test Example 5: herbicidal effect by foliage application, plastic box (Table 20, symbol N); format: in vivo, redroot pigweed (Amaranthus retroflexus); details: foliage application, 320 g/ha, three weeks after application
How it was run: as §1

green foxtail [12] = experiment: Test Example 4: herbicidal effect by soil treatment (Table 19, symbol G); format: in vivo, green foxtail (Setaria viridis); details: amount of applied herbicide 320 g/ha
How it was run: as §4

redroot pigweed [13] = experiment: Test Example 4: herbicidal effect by soil treatment (Table 19, symbol N); format: in vivo, redroot pigweed (Amaranthus retroflexus); details: amount of applied herbicide 320 g/ha
How it was run: as §4

[14] = 80 g/ha, 3 weeks after application
[15] = 320 g/ha, three weeks after application
[16] = amount of applied herbicide 320 g/ha

SMILES: CC#CCOc1ccc(-c2sc3ccccc3c2-c2c(O)c(C)nn(C)c2=O)cc1 [1-219]
- effect on green foxtail (G) (green foxtail [1]; [14]): 5 (Herbicidal rate of 90% or more (almost completely withered))
- effect on wild oat (I) (wild oat; [14]): 1 (Herbicidal rate of 5% or more and less than 20%)
- herbicidal effect on E (rice flat sedge), rating 0-5 (rice flat sedge; 80 g/ha): 3 (Herbicidal rate of 40% or more and less than 70%)
- effect on velvetleaf (M) (velvetleaf [2]; [14]): 4 (Herbicidal rate of 70% or more and less than 90%)
- effect on southern crabgrass (F) (southern crabgrass [3]; [14]): 3 (Herbicidal rate of 40% or more and less than 70%)
- effect on persian speedwell (R) (persian speedwell; [14]): 5 (Herbicidal rate of 90% or more (almost completely withered))
- Herbicidal effect on A: late watergrass (grade 0-5) (late watergrass; 80 g/ha applied herbicide): 5 (Herbicidal rate of 90% or more (almost completely withered))
- Herbicidal effect on B: Japanese bulrush (grade 0-5) (Japanese bulrush; 80 g/ha applied herbicide): 3 (Herbicidal rate of 40% or more and less than 70%)
- effect on blackgrass (J) (blackgrass; [14]): 4 (Herbicidal rate of 70% or more and less than 90%)
- effect on lambsquarters (O) (lambsquarters [4]; [14]): 5 (Herbicidal rate of 90% or more (almost completely withered))
- effect on Italian ryegrass (K) (Italian ryegrass; [14]): 5 (Herbicidal rate of 90% or more (almost completely withered))
- Herbicidal effect on C: oval-leafed pondweed (grade 0-5) (oval-leafed pondweed; 80 g/ha applied herbicide): 3 (Herbicidal rate of 40% or more and less than 70%)
- effect on windgrass (L) (windgrass; [14]): 0 (Herbicidal rate of 5% or less (almost no effect))
- herbicidal effect on H (barnyard grass), rating 0-5 (barnyard grass [5]; 80 g/ha): 5 (Herbicidal rate of 90% or more (almost completely withered))
- herbicidal effect on D (Chinese sprangletop), rating 0-5 (Chinese sprangletop; 80 g/ha): 5 (Herbicidal rate of 90% or more (almost completely withered))
- effect on barnyard grass (H) (barnyard grass [6]; [14]): 4 (Herbicidal rate of 70% or more and less than 90%)

SMILES: Cc1nn(C)c(=O)c(-c2c(-c3ccc(OCC=C(Cl)Cl)cc3)sc3ccc(F)cc23)c1O [2-442]
- G: green foxtail, herbicidal effect grade (green foxtail [1]; [15]): 3 (Herbicidal rate of 40% or more and less than 70%)
- herbicidal effect on E: rice flat sedge (rice flat sedge; [16]): 3 (Herbicidal rate of 40% or more and less than 70%)
- herbicidal effect, M: velvetleaf (velvetleaf [7]): 0 (Herbicidal rate of 5% or less (almost no effect))
- M: velvetleaf, herbicidal effect grade (velvetleaf [2]; [15]): 4 (Herbicidal rate of 70% or more and less than 90%)
- herbicidal effect, O: lambsquarters (lambsquarters [8]): 1 (Herbicidal rate of 5% or more and less than 20%)
- F: southern crabgrass, herbicidal effect grade (southern crabgrass [3]; [15]): 3 (Herbicidal rate of 40% or more and less than 70%)
- Herbicidal effect, A: late watergrass (late watergrass): 3 (Herbicidal rate of 40% or more and less than 70%)
- Herbicidal effect, B: Japanese bulrush (Japanese bulrush): 2 (Herbicidal rate of 20% or more and less than 40%)
- herbicidal effect, H: barnyard grass (barnyard grass [9]): 0 (Herbicidal rate of 5% or less (almost no effect))
- herbicidal effect, F: southern crabgrass (southern crabgrass [10]): 0 (Herbicidal rate of 5% or less (almost no effect))
- O: lambsquarters, herbicidal effect grade (lambsquarters [4]; [15]): 5 (Herbicidal rate of 90% or more (almost completely withered))
- N: redroot pigweed, herbicidal effect grade (redroot pigweed [11]): 5 (Herbicidal rate of 90% or more (almost completely withered))
- herbicidal effect, G: green foxtail (green foxtail [12]): 0 (Herbicidal rate of 5% or less (almost no effect))
- Herbicidal effect, C: oval-leafed pondweed (oval-leafed pondweed): 2 (Herbicidal rate of 20% or more and less than 40%)
- herbicidal effect on H: barnyard grass (barnyard grass [5]; [16]): 5 (Herbicidal rate of 90% or more (almost completely withered))
- herbicidal effect on D: Chinese sprangletop (Chinese sprangletop; [16]): 2 (Herbicidal rate of 20% or more and less than 40%)
- H: barnyard grass, herbicidal effect grade (barnyard grass [6]; [15]): 4 (Herbicidal rate of 70% or more and less than 90%)
- herbicidal effect, N: redroot pigweed (redroot pigweed [13]): 3 (Herbicidal rate of 40% or more and less than 70%)

SMILES: CCCC(=O)Oc1c(C)nn(C)c(=O)c1-c1c(-c2ccc(C(F)(F)F)cc2)sc2cc(C)c(C)cc12 [5-097]
- herbicidal effect on green foxtail (G) (green foxtail [1]; [15]): 0 (Herbicidal rate of 5% or less (almost no effect))
- herbicidal effect on wild oat (I) (wild oat; [15]): 0 (Herbicidal rate of 5% or less (almost no effect))
- herbicidal effect on rice flat sedge (E) (rice flat sedge; 320 g/ha): 1 (Herbicidal rate of 5% or more and less than 20%)
- herbicidal effect on velvetleaf (M) (velvetleaf [2]; [15]): 0 (Herbicidal rate of 5% or less (almost no effect))
- herbicidal effect on southern crabgrass (F) (southern crabgrass [3]; [15]): 0 (Herbicidal rate of 5% or less (almost no effect))
- herbicidal effect on persian speedwell (R) (persian speedwell; [15]): 0 (Herbicidal rate of 5% or less (almost no effect))
- Herbicidal effect, A: late watergrass (late watergrass): 3 (Herbicidal rate of 40% or more and less than 70%)
- Herbicidal effect, B: Japanese bulrush (Japanese bulrush): 0 (Herbicidal rate of 5% or less (almost no effect))
- herbicidal effect on blackgrass (J) (blackgrass; [15]): 0 (Herbicidal rate of 5% or less (almost no effect))
- herbicidal effect on lambsquarters (O) (lambsquarters [4]; [15]): 0 (Herbicidal rate of 5% or less (almost no effect))
- herbicidal effect on Italian ryegrass (K) (Italian ryegrass; [15]): 0 (Herbicidal rate of 5% or less (almost no effect))
- Herbicidal effect, C: oval-leafed pondweed (oval-leafed pondweed): 0 (Herbicidal rate of 5% or less (almost no effect))
- herbicidal effect on windgrass (L) (windgrass; [15]): 0 (Herbicidal rate of 5% or less (almost no effect))
- herbicidal effect on barnyard grass (H) (barnyard grass [5]; 320 g/ha): 4 (Herbicidal rate of 70% or more and less than 90%)
- herbicidal effect on Chinese sprangletop (D) (Chinese sprangletop; 320 g/ha): 2 (Herbicidal rate of 20% or more and less than 40%)
- herbicidal effect on barnyard grass (H) (barnyard grass [6]; [15]): 0 (Herbicidal rate of 5% or less (almost no effect))

From patent publication US20230085307A1, “PYRIDAZINONE COMPOUND AND HERBICIDE” (NISSAN CHEMICAL CORPORATION, priority 2019, published 2023)
